For data set [1], the target named is TRKB (Homo sapiens, UniProt Q16620). The data set can be described thus: Protein kinase profiling panel (Carna Biosciences), TRKB. The following applies: read-out: Percent Inhibition at 46 nM, TRKB.
Data set [2] concerns MOLM-13 cell line. The data set can be described thus: Apoptosis by flow cytometry (YO-PRO-1 iodide / propidium iodide), MOLM-13. The note with it: MOLM-13, 300 nM, 72 hours; vehicle 8 ± 1%. In general terms: In flow cytometry, cells or beads pass a laser one at a time.
Procedure: (§2) To assess apoptosis, AML cell lines were cultured at 3 × 10^5 cells, and 1 × 10^6 AML patient blasts were co-cultured with 3.5 × 10^5 HS27 cells per condition in 24 well plates, and treated for 72 hours. […] Flow cytometry data were analyzed using Modfit Cell Cycle Analysis software (Verity Software House). In replating assays, cells were similarly plated and treated, then harvested cells were washed twice, and 1.5 × 10^4 viable cells/ml were cultured in cRPMI for six days. Six days after replating, viable myeloblast count was determined by trypan blue exclusion using a Cedex XS Analyzer (Roche).
For data set [3], the system named is AML cell lines expressing Mer or Flt3 internal tandem duplication (ITD). The data set can be described thus: Colony formation, AML cell lines expressing Mer or Flt3-ITD (all lines together). In kind it is cell-based. The following applies: compared to treatment with vehicle. On the procedure: Cell lines were plated at a density of 1000 cells/ml in 0.35% agar over 0.5% agar base layer. […] Colonies were grown for 14 (NOMO-1, MV4;11, MOLM-13) or 21 days (Kasumi-1) prior to staining with 1 mg/ml nitrotetrazolium blue (Sigma-Aldrich). Treatment-containing medium was renewed twice weekly. […]. Human mononuclear cells were isolated from umbilical cord blood samples using Ficoll-Paque PLUS (GE Healthcare Life Sciences). […]. Cell line and patient sample colonies were counted using a GelCount colony counter (Oxford Optronix) and cord blood colonies were manually counted in a blinded, non-biased manner.

Data set [4] has as its system Mer-expressing cell lines. The data set can be described thus: Apoptosis by flow cytometry, Mer-expressing cell lines. The following applies: 72 hours, range over Mer-expressing cell lines.
The subject of data set [5] is Erk1/2, Akt and Stat6 phosphorylation. The data set can be described thus: Downstream signaling immunoblot in Mer expressing cell lines. Type of data set: cell-based. The note with it: two hour treatment. The protocol: Whole cell lysates were prepared and proteins were resolved on Tris-Glycine SDS-PAGE gels (Invitrogen) and transferred onto nitrocellulose membranes. Membranes were blocked in tris-buffered saline with 0.1% Tween-20 containing 5% bovine serum albumin (when probing for Flt3) or 5% milk (when probing for all other molecules). For immunoprecipitation assays, cells were plated and treated as above, then treated with pervanadate for 10 minutes prior to cell lysis to stabilize the phosphorylation status. With the use of pervandate, it was not necessary to stimulate cells with exogenous Mer or Flt3 ligands (other than from fetal bovine serum) to detect phosphorylated Mer and Flt3 proteins. Anti-Mer antibody or anti-Flt3 and rec-Protein G-sepharose beads (Invitrogen) were added and lysates were incubated overnight on a rocking platform. Beads were washed and eluted proteins were resolved as above. Immunoprecipitate membranes were probed with an anti-phospho-Mer or anti-phospho-Flt3 antibody. After visualization, membranes were stripped and reprobed for total protein. The following antibodies were used according to manufacturer recommendations: anti-Mer (ab52968, AbCam); anti-phospho-Mer (Phosphosolutions Inc.); anti-Flt3 (sc-480), anti-Actin (sc-1616), anti-pan-Trk (sc-11), donkey-anti-goat IgG-HRP (sc-2020) (Santa Cruz Biotechnology); anti-phospho-Flt3 (#3461), anti-phospho-Stat6 (Tyr641, #9364), anti-Stat6, (#9362), anti-phospho-Stat5 (Tyr694, #9359), anti-Stat5 (#9358), anti-phospho-AKT (Ser473, #9271L), anti-AKT (#9272), anti-phospho-p44/42-MAPK (ERK1/2, Thr202/Tyr204, #9106), anti-p44/42-MAPK (#9102), anti-PARP (#9542), anti-Caspase-3 (#9665), anti-Tyro-3 (#5585) (Cell Signaling Technology); anti-Axl (AF154, R&D Systems); goat-anti-mouse IgG-HRP, goat-anti-rabbit IgG-HRP (BioRad). Proteins were visualized by horseradish peroxidase chemiluminescence detection (Perkin-Elmer).
In general terms: A western blot detects proteins with antibodies after separation by electrophoresis.

Data set [6] concerns MV4;11. The data set can be described thus: Soft agar colony formation assay, MV4;11. Type of data set: cell-based. The following applies: MV4;11, 50 nM, 14 days, normalized to vehicle. The protocol:
(§1) Cell lines were plated at a density of 1000 cells/ml in 0.35% agar over 0.5% agar base layer. […] Colonies were grown for 14 (NOMO-1, MV4;11, MOLM-13) or 21 days (Kasumi-1) prior to staining with 1 mg/ml nitrotetrazolium blue (Sigma-Aldrich). Treatment-containing medium was renewed twice weekly. […] Human mononuclear cells were isolated from umbilical cord blood samples using Ficoll-Paque PLUS (GE Healthcare Life Sciences). […] Cell line and patient sample colonies were counted using a GelCount colony counter (Oxford Optronix) and cord blood colonies were manually counted in a blinded, non-biased manner.

Data set [7] relates to Kasumi-1. The data set can be described thus: Soft agar colony formation assay, Kasumi-1. Type of data set: cell-based. The note with it: Kasumi-1, 100 nM, 21 days, normalized to vehicle. The protocol:
as §1

Data set [8] deals with MV4;11 cell line. The data set can be described thus: Apoptosis by flow cytometry (YO-PRO-1 iodide / propidium iodide), MV4;11. The note with it: MV4;11, 300 nM, 72 hours; vehicle 13 ± 3%.
Procedure: as §2
Data set [9] deals with normal umbilical cord blood. The data set can be described thus: Colony formation in methylcellulose, normal umbilical cord blood hematopoietic precursors. In kind it is cell-based, human. On the procedure:
as §1

The subject of data set [10] is AML cell lines expressing Mer or Flt3 internal tandem duplication (ITD). The data set can be described thus: Apoptosis by flow cytometry, AML cell lines expressing Mer or Flt3-ITD (all lines together). The note with it: maximum over cell lines, compared to vehicle.
Procedure: as §2
Data set [11] has as its system Kasumi-1 cell line. The data set can be described thus: Replating (rebound growth) assay, Kasumi-1. The note with it: Kasumi-1, 100 nM for 72 hours then washed, replated at 1.5 × 10^4 viable cells/ml; vehicle 2.0 × 10^5.
Procedure: as §2
Data set [12] deals with MOLM-13. The data set can be described thus: Soft agar colony formation assay, MOLM-13. In kind it is cell-based. The following applies: MOLM-13, 50 nM, 14 days, normalized to vehicle. The protocol:
as §1

Structures are written as SMILES.

We go through one molecule from PMC4466645 (Oncotarget, 2015).

Chain of TRKB (Q16620 32-822): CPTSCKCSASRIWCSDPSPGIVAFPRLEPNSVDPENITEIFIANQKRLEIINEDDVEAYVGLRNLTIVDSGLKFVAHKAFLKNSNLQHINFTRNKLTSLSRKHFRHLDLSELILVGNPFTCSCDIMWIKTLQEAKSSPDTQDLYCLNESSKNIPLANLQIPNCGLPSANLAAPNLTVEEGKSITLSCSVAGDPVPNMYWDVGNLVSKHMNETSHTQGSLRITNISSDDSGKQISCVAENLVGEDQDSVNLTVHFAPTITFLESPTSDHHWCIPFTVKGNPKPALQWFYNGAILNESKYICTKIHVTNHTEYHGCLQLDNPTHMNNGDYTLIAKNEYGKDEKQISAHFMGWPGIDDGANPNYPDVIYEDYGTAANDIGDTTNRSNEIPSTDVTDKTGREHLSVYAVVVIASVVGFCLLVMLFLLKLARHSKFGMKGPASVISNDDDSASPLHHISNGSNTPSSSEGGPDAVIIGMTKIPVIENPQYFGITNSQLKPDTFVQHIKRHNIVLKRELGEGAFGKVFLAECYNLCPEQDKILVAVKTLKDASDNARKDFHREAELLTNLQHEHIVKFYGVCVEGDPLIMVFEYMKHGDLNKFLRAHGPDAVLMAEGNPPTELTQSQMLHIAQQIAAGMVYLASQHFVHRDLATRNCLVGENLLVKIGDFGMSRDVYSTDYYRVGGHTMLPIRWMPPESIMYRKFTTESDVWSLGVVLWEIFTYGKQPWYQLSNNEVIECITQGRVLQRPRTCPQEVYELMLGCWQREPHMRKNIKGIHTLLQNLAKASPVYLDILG

Consider `CCCCNc1ncc2c(-c3ccc(S(=O)(=O)N4CCOCC4)cc3)cn([C@H]3CC[C@H](O)CC3)c2n1` [UNC1666], for which the inhibition at 0.046 µM in data set [1] was 95%. In addition, the “Apoptosis (cells apoptotic or dead)” value in data set [2] came to 98 ± 2%; in data set [8], 90 ± 1%. Further, in data set [3], the “Reduction of colony formation” value was “greater than 90%”. Moreover, the “Induction of apoptosis, % of cells” value in [4] (100 nM) is 50–67%; in data set [4] (300 nM), 68–76%; in [10], “up to 98%”. In addition, the figures for the “Erk1/2, Akt and Stat6 phosphorylation” value in data set [5] (50 nM), in data set [5] (100 nM) and in data set [5] (300 nM) were “diminished phosphorylation”, “moderate decrease” and “more complete inhibition”, respectively. Besides, the Reduction in colonies came to 61 ± 22% in [6] and 93 ± 6% in data set [12]. Moreover, in data set [7], the “Reduction in colony formation” value came out at 90 ± 6%. In addition, the “Colony formation of normal cord blood hematopoietic precursors (in words)” value in data set [9] (1 μM, methylcellulose, 14 days) is reported as “trend towards decreased colony formation”. In addition, in data set [9] (10 μM, methylcellulose, 14 days), the “Decrease in colony formation of normal cord blood hematopoietic precursors (in words)” value is given as “statistically significant”. Also, the “Colony forming potential of hematopoietic progenitors in normal cord blood cultures (in words)” value in [9] (doses as high as 1 μM) was “did not affect the colony forming potential”. In addition, the “Colony number of normal cord blood hematopoietic precursors (in words)” value in data set [9] (doses up to 500 nM, n = 3, methylcellulose, 14 days) is recorded as “no significant reduction in colony number”. Besides, in [11], the “Viable cell number at Day 6 after replating” value is given as 0.3 × 10^5 cells/ml.

As a reminder, the inhibition is the change of the read-out against control, counted positive when it falls.
